The values below come from patent publication US4987151A, “Triterpene derivatives cholesterol acyltransferase inhibitors and methods of using same” (The Trustees of Columbia University in the City of New York, priority 1989, dated 1991).

The test system of test [1] is rats. The conditions noted are these: cited from earlier work.
Test [2] relates to J774 Macrophages. Particulars: tissue culture macrophages (J774); cited from earlier work.
Test [3] deals with ACAT enzyme. Description: ACAT inhibitory activity, free hydroxyl compound versus ester admixture. Type of test: biochemical. The protocol: The term "effective amount" as used herein is an amount sufficient to inhibit the ACAT enzyme from esterifying cholesterol and fatty acids to cholesteryl esters. The actual amount used varies depending on which compound or composition or admixture is used. For example, the free hydroxyl compound seems to have less activity than an admixture of the stearate and palmitate esters. The actual dosages may vary from about 0.1 mg/kg/day to about 50 mg/kg/day, and may be adjusted by a person of ordinary skill in the art to maximize effectiveness while avoiding side effects and toxicities.

Regarding `CCCCCCCN(Cc1ccc(CC(C)(C)C)cc1)C(=O)Nc1ccc(F)cc1F` [CL 277,082], the “effect on cholesterol concentrations in plasma, liver, and aorta” value in test [1] was “decreasing cholesterol concentrations in plasma, liver, and aorta”. Take `CCCCCCCCCC[Si](C)(C)CCC(=O)NC(Cc1ccc(C)cc1)c1ccccc1` (stereo not drawn) [Sandoz Compound 58-035]: the “effect on foam cell formation” value in test [2] is given as “help prevent foam cell formation”. With `C[C@@H]1[C@H](O)CC[C@]2(C)[C@H]3CC=C4[C@@H]5C[C@](C)(C(=O)O)C[C@H](O)[C@]5(C)CC[C@@]4(C)[C@]3(C)CC[C@@H]12` [free hydroxyl compound], in test [3], the “activity relative to admixture of the stearate and palmitate esters” value is recorded as “less activity”.
